Experimental data published in patent US8574831B2, “Mutational profiles in HIV-1 reverse transcriptase correlated with phenotypic drug resistance” (Virco N.V., priority 2000, dated 2013).

Tested on: HIV with mutations in the HIV protease sequence
Assay: Phenotypic fold resistance to protease inhibitors, protease mutations 84A/84L/84C/54M/54L/54V in a background (Examples 8-13)
Format: cell-based, HIV-1
How it was run: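 Recombinant-virus phenotyping: patient-derived PR/RT sequences amplified by PCR and recombined in CD4+ T cells into an HXB2 proviral clone deleted for those sequences. Chimeric viruses grown across drug concentrations; IC50 determined, and fold-resistance expressed as IC50 ratio versus wild-type susceptible laboratory HIV-1 tested in parallel.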

SMILES: CC(C)(C)NC(=O)[C@@H]1C[C@@H]2CCCC[C@@H]2CN1C[C@@H](O)[C@H](Cc1ccccc1)NC(=O)[C@H](CC(N)=O)NC(=O)c1ccc2ccccc2n1 [Saquinavir, saquinavir]
- Fold change in IC50 (Table 12, V055199, genotype 10I + 33F + 54M + 90M): 5.6 fold
- Fold change in IC50 (Table 13, V19263, genotype 77I): 0.3 fold
- Fold change in IC50 (Table 13, V20160, genotype WT): 0.9 fold
- Fold change in IC50 (Table 13, V021667, genotype 10I): 0.9 fold
- Fold change in IC50 (Table 13, V030496, genotype 10I + 77I): 0.3 fold
- Fold change in IC50 (Table 13, V048868, genotype 10I + 54L + 71V + 77I + 90M): 16.5 fold
- Fold change in IC50 (Table 13, V048874, genotype 10I + 33F + 54L + 71V + 77I + 90M): 4.6 fold
- Fold change in IC50 (Table 13, V048875, genotype 10I + 33F + 54L + 71V + 77I + 90M): 12.0 fold
- Fold change in IC50 (Table 13, V048877, genotype 10I + 33F + 77I + 90M): 1.5 fold
- Fold change in IC50 (Table 13, V048880, genotype 10I + 33F + 77I + 90M): 2.7 fold
- Fold change in IC50 (Table 13, V052940, genotype 71V): 0.8 fold
- Fold change in IC50 (Table 13, V052942, genotype 10I + 71V): 0.8 fold
- Fold change in IC50 (Table 13, V052943, genotype 10I + 90M): 1.1 fold
- Fold change in IC50 (Table 13, V052944, genotype 10I + 90M): 0.7 fold
- Fold change in IC50 (Table 13, V052945, genotype 77I + 90M): 1.4 fold
- Fold change in IC50 (Table 13, V052946, genotype 71V + 90M): 1.4 fold
- Fold change in IC50 (Table 13, V052947, genotype 10I + 77I + 90M): 3.9 fold
- Fold change in IC50 (Table 13, V052948, genotype 10I + 71V + 90M): 4.8 fold
- Fold change in IC50 (Table 13, V052949, genotype 10I + 71V + 77I + 90M): 2.1 fold
- Fold change in IC50 (Table 13, V052950, genotype 33F): 1.2 fold
- Fold change in IC50 (Table 13, V052951, genotype 33F + 77I): 0.4 fold
- Fold change in IC50 (Table 13, V052953, genotype 10I + 33F + 77I): 1.2 fold
- Fold change in IC50 (Table 13, V052954, genotype 33F + 77I + 90M): 1.7 fold
- Fold change in IC50 (Table 13, V052955, genotype 33F + 71V + 90M): 20.4 fold
- Fold change in IC50 (Table 13, V052968, genotype 10L/I + 33F/L + 54L + 77I): 1.5 fold
- Fold change in IC50 (Table 13, V052969, genotype 10I + 33F + 54L + 90M): 1.4 fold
- Fold change in IC50 (Table 13, V052970, genotype 54L): 0.7 fold
- Fold change in IC50 (Table 13, V052971, genotype 10I + 54L): 0.7 fold
- Fold change in IC50 (Table 13, V052972, genotype 54L + 77I): 1.0 fold
- Fold change in IC50 (Table 13, V052973, genotype 10I + 54L + 77I): 0.8 fold
- Fold change in IC50 (Table 13, V052974, genotype 10I + 54L + 90M): 1.1 fold
- Fold change in IC50 (Table 13, V052975, genotype 10I + 54L + 71V + 90M): 24.2 fold
- Fold change in IC50 (Table 13, V052976, genotype 10I + 54L + 71V + 77I + 90M): 1.8 fold
- Fold change in IC50 (Table 13, V053832, genotype 10I + 33F): 0.5 fold
- Fold change in IC50 (Table 13, V053854, genotype 54L + 71V): 0.9 fold
- Fold change in IC50 (Virco ID 214846, genotype 10I + 33F + 54V + 71V + 77I + 90M, vs mean IC50 of wild type laboratory HIV strain): 27.8 fold
- Fold change in IC50 (Virco ID V021667, genotype 10I, vs mean IC50 of wild type laboratory HIV strain): 0.9 fold
- Fold change in IC50 (Virco ID V030496, genotype 10I + 77I, vs mean IC50 of wild type laboratory HIV strain): 0.3 fold
- Fold change in IC50 (Virco ID V048876, genotype 33F + 54V + 77I + 90M, vs mean IC50 of wild type laboratory HIV strain): 1.5 fold
- Fold change in IC50 (Virco ID V048877, genotype 10I + 33F + 77I + 90M, vs mean IC50 of wild type laboratory HIV strain): 1.5 fold
- Fold change in IC50 (Virco ID V048880, genotype 10I + 33F + 77I + 90M, vs mean IC50 of wild type laboratory HIV strain): 2.7 fold
- Fold change in IC50 (Virco ID V052940, genotype 71V, vs mean IC50 of wild type laboratory HIV strain): 0.8 fold
- Fold change in IC50 (Virco ID V052942, genotype 10I + 71V, vs mean IC50 of wild type laboratory HIV strain): 0.8 fold
- Fold change in IC50 (Virco ID V052943, genotype 10I + 90M, vs mean IC50 of wild type laboratory HIV strain): 1.1 fold
- Fold change in IC50 (Virco ID V052944, genotype 10I + 90M, vs mean IC50 of wild type laboratory HIV strain): 0.7 fold
- Fold change in IC50 (Virco ID V052946, genotype 71V + 90M, vs mean IC50 of wild type laboratory HIV strain): 1.4 fold
- Fold change in IC50 (Virco ID V052947, genotype 10I + 77I + 90M, vs mean IC50 of wild type laboratory HIV strain): 3.9 fold
- Fold change in IC50 (Virco ID V052948, genotype 10I + 71V + 90M, vs mean IC50 of wild type laboratory HIV strain): 4.8 fold
- Fold change in IC50 (Virco ID V052949, genotype 10I + 71V + 77I + 90M, vs mean IC50 of wild type laboratory HIV strain): 2.1 fold
- Fold change in IC50 (Virco ID V052950, genotype 33F, vs mean IC50 of wild type laboratory HIV strain): 1.2 fold
- Fold change in IC50 (Virco ID V052951, genotype 33F + 77I, vs mean IC50 of wild type laboratory HIV strain): 0.4 fold
- Fold change in IC50 (Virco ID V052953, genotype 10I + 33F + 77I, vs mean IC50 of wild type laboratory HIV strain): 1.2 fold
- Fold change in IC50 (Virco ID V052954, genotype 33F + 77I + 90M, vs mean IC50 of wild type laboratory HIV strain): 1.7 fold
- Fold change in IC50 (Virco ID V052955, genotype 33F + 71V + 90M, vs mean IC50 of wild type laboratory HIV strain): 20.4 fold
- Fold change in IC50 (Virco ID V052957, genotype 10I + 33F + 54V + 90M, vs mean IC50 of wild type laboratory HIV strain): 1.6 fold
- Fold change in IC50 (Virco ID V052958, genotype 10I + 33F + 54V + 77I + 90M, vs mean IC50 of wild type laboratory HIV strain): 1.0 fold
- Fold change in IC50 (Virco ID V052959, genotype 10I + 33F + 54V + 77I + 90M, vs mean IC50 of wild type laboratory HIV strain): 1.0 fold
- Fold change in IC50 (Virco ID V052960, genotype 10I + 33F + 54V + 71V + 90M, vs mean IC50 of wild type laboratory HIV strain): 21.8 fold
- Fold change in IC50 (Virco ID V052961, genotype 54V, vs mean IC50 of wild type laboratory HIV strain): 1.0 fold
- Fold change in IC50 (Virco ID V052962, genotype 10I + 54V, vs mean IC50 of wild type laboratory HIV strain): 0.9 fold
- Fold change in IC50 (Virco ID V052963, genotype 54V + 77I + 90M, vs mean IC50 of wild type laboratory HIV strain): 1.3 fold
- Fold change in IC50 (Virco ID V052964, genotype 54V + 71V + 90M, vs mean IC50 of wild type laboratory HIV strain): 1.4 fold
- Fold change in IC50 (Virco ID V052965, genotype 10I + 54V + 77I + 90M, vs mean IC50 of wild type laboratory HIV strain): 6.3 fold
- Fold change in IC50 (Virco ID V052966, genotype 10I + 54V + 71V + 90M, vs mean IC50 of wild type laboratory HIV strain): 28.6 fold
- Fold change in IC50 (Virco ID V052967, genotype 10I + 54V + 71V + 77I + 90M, vs mean IC50 of wild type laboratory HIV strain): 0.6 fold
- Fold change in IC50 (Virco ID V053358, genotype 33F + 54V + 77I + 90M, vs mean IC50 of wild type laboratory HIV strain): 1.3 fold
- Fold change in IC50 (Virco ID V053831, genotype 33F + 54V, vs mean IC50 of wild type laboratory HIV strain): 1.0 fold
- Fold change in IC50 (Virco ID V053832, genotype 10I + 33F, vs mean IC50 of wild type laboratory HIV strain): 0.5 fold
